The results in this text go back to patent publication US20250230193A1, “CYCLIC COMPOUND HAVING SELECTIVE KRAS INHIBITORY EFFECT ON HRAS AND NRAS” (CHUGAI SEIYAKU KABUSHIKI KAISHA, priority 2022, published 2025).

SMILES strings stand for the structures. Where a SMILES comes first, the peptide text is derived from it. Bridges are numbered along the chain shown (N, C = ends). [ ]: non-standard residue; d: D form. The star is where a group is joined. hPhe(3-Cl-4-CF3) = N[C@@H](CCc1ccc(C(F)(F)F)c(Cl)c1)C(=O)O; NPrPhe(4-CF3) = CCCN[C@@H](Cc1ccc(C(F)(F)F)cc1)C(=O)O; Piperazinyl(4-(3-oxetanyl)) = C1OCC1N1CCN(*)CC1; NMeGly(cPent) = CN[C@H](C(=O)O)C1CCCC1; Piperidide(4-Me) = CC1CCN(*)CC1; NMeD = CN[C@@H](CC(=O)O)C(=O)O; NMeL = CN[C@@H](CC(C)C)C(=O)O; Oxazolidin(3-yl) = C1CN(*)CO1; NMeA = CN[C@@H](C)C(=O)O; Ac5c = NC1(C(=O)O)CCCC1; Aze = O=C(O)[C@@H]1CCN1; X25 = CC1(C)CCN(*)C1; Sar = CNCC(=O)O

For test [1], the target named is GDP-bound NRAS wild-type protein (Homo sapiens, UniProt P01111). Kind of test: Binding to NRAS by surface plasmon resonance (SPR), Single Cycle Kinetics. The following applies: KD ratio NRAS/KRAS, SPR. (SPR reads the build-up and loss of mass on a sensor chip optically.)
The target in test [2] is GDP-bound HRAS wild-type protein (Homo sapiens, UniProt P01112). Kind of test: Binding to HRAS by surface plasmon resonance (SPR), Single Cycle Kinetics. The following applies: KD ratio HRAS/KRAS, SPR.
Sequence of GDP-bound HRAS wild-type protein (P01112 whole entry): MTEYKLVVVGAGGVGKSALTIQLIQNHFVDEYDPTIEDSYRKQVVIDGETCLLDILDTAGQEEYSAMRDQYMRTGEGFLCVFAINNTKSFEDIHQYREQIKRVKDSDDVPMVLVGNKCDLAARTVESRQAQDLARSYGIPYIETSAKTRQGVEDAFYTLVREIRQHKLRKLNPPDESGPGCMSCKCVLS

Sequence of GDP-bound NRAS wild-type protein (P01111 whole entry): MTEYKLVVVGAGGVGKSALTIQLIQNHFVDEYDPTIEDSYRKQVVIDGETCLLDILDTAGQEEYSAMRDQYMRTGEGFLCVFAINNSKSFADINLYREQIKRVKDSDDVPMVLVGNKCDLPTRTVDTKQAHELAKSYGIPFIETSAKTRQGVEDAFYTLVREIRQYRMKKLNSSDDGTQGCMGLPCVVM

Take `CCCN1C(=O)CN(C)C(=O)CN(C)C(=O)[C@H]([C@@H](C)CC)NC(=O)[C@H](CC(C)C)N(C)C(=O)C[C@@H](C(=O)N2CCOC2)N(C)C(=O)[C@H](C2CCCC2)N(C)C(=O)C2(CCCC2)NC(=O)[C@@H]2CCCN2C(=O)[C@H](CCc2ccc(C(F)(F)F)c(Cl)c2)NC(=O)CN(C)C(=O)[C@@H]1Cc1ccc(C(F)(F)F)cc1` [PP0174] ([NMeL]I[Sar][Sar][NPrPhe(4-CF3)][Sar][hPhe(3-Cl-4-CF3)]P[Ac5c][NMeGly(cPent)][NMeD]-{Oxazolidin(3-yl)}; lactam N-11): the “NRAS/KRAS (ratio of KD for GDP-bound NRAS wild-type to KD for KRAS)” value in test [1] was “B (a compound having 3 or more and less than 10 is denoted as B)”. Besides, in test [2], the “HRAS/KRAS (ratio of KD for GDP-bound HRAS wild-type to KD for KRAS)” value was “B (a compound having 3 or more and less than 10 is denoted as B)”.

As to `CCCN1C(=O)CN(C)C(=O)CN(C)C(=O)[C@H]([C@@H](C)CC)NC(=O)[C@H](CC(C)C)N(C)C(=O)C[C@@H](C(=O)N2CCN(C3COC3)CC2)N(C)C(=O)[C@H](C2CCCC2)N(C)C(=O)C2(CCCC2)NC(=O)[C@@H]2CCCN2C(=O)[C@H](CCc2ccc(C(F)(F)F)c(Cl)c2)NC(=O)CN(C)C(=O)[C@@H]1Cc1ccc(C(F)(F)F)cc1` [PP0175] ([NMeL]I[Sar][Sar][NPrPhe(4-CF3)][Sar][hPhe(3-Cl-4-CF3)]P[Ac5c][NMeGly(cPent)][NMeD]-{Piperazinyl(4-(3-oxetanyl))}; lactam N-11), the “NRAS/KRAS (ratio of KD for GDP-bound NRAS wild-type to KD for KRAS)” value in test [1] was “B (a compound having 3 or more and less than 10 is denoted as B)”. In addition, in test [2], the “HRAS/KRAS (ratio of KD for GDP-bound HRAS wild-type to KD for KRAS)” value is “B (a compound having 3 or more and less than 10 is denoted as B)”.

Consider `CCCN1C(=O)CN(C)C(=O)CN(C)C(=O)[C@H]([C@@H](C)CC)NC(=O)[C@H](CC(C)C)N(C)C(=O)C[C@@H](C(=O)N2CCC(C)CC2)N(C)C(=O)[C@H](C2CCCC2)N(C)C(=O)C2(CCCC2)NC(=O)[C@@H]2CCCN2C(=O)[C@H](CCc2ccc(C(F)(F)F)c(Cl)c2)NC(=O)CN(C)C(=O)[C@@H]1Cc1ccc(C(F)(F)F)cc1` [PP0176] ([NMeL]I[Sar][Sar][NPrPhe(4-CF3)][Sar][hPhe(3-Cl-4-CF3)]P[Ac5c][NMeGly(cPent)][NMeD]-{Piperidide(4-Me)}; lactam N-11), for which, in test [1], the “NRAS/KRAS (ratio of KD for GDP-bound NRAS wild-type to KD for KRAS)” value was “B (a compound having 3 or more and less than 10 is denoted as B)”. Also, in test [2], the “HRAS/KRAS (ratio of KD for GDP-bound HRAS wild-type to KD for KRAS)” value was “C (A compound having a KD ratio of 0.1 or more and less than 3 is denoted as C)”.

As to `CCCN1C(=O)CN(C)C(=O)CN(C)C(=O)[C@H]([C@@H](C)CC)NC(=O)[C@H](CC(C)C)N(C)C(=O)C[C@@H](C(=O)N2CCC(C)(C)C2)N(C)C(=O)[C@H](C2CCCC2)N(C)C(=O)C2(CCCC2)NC(=O)[C@@H]2CCCN2C(=O)[C@H](CCc2ccc(C(F)(F)F)c(Cl)c2)NC(=O)CN(C)C(=O)[C@@H]1Cc1ccc(C(F)(F)F)cc1` [PP0177] ([NMeL]I[Sar][Sar][NPrPhe(4-CF3)][Sar][hPhe(3-Cl-4-CF3)]P[Ac5c][NMeGly(cPent)][NMeD]-X25; lactam N-11), the “NRAS/KRAS (ratio of KD for GDP-bound NRAS wild-type to KD for KRAS)” value in test [1] was “B (a compound having 3 or more and less than 10 is denoted as B)”. The “HRAS/KRAS (ratio of KD for GDP-bound HRAS wild-type to KD for KRAS)” value in test [2] was “C (A compound having a KD ratio of 0.1 or more and less than 3 is denoted as C)”.

In the case of `CCCN1C(=O)[C@@H]2CCN2C(=O)[C@H](C)N(C)C(=O)[C@H]([C@@H](C)CC)NC(=O)[C@H](CC(C)C)N(C)C(=O)C[C@@H](C(=O)N(C)C)N(C)C(=O)[C@H](C2CCCC2)N(C)C(=O)C2(CCCC2)NC(=O)[C@@H]2CCCN2C(=O)[C@H](CCc2ccc(C(F)(F)F)c(Cl)c2)NC(=O)CN(C)C(=O)[C@@H]1Cc1ccc(C(F)(F)F)cc1` [PP0178] ([NMeL]I[NMeA][Aze][NPrPhe(4-CF3)][Sar][hPhe(3-Cl-4-CF3)]P[Ac5c][NMeGly(cPent)][NMeD]-NMe2; lactam N-11), in test [1], the “NRAS/KRAS (ratio of KD for GDP-bound NRAS wild-type to KD for KRAS)” value is “C (A compound having a KD ratio of 0.1 or more and less than 3 is denoted as C)”. Besides, the “HRAS/KRAS (ratio of KD for GDP-bound HRAS wild-type to KD for KRAS)” value in test [2] is “B (a compound having 3 or more and less than 10 is denoted as B)”.
